These results are taken from ChEMBL document CHEMBL4477252, “Optimization of microtubule affinity regulating kinase (MARK) inhibitors with improved physical properties” (Bioorg Med Chem Lett, 2016).

By half-life is commonly meant how long it takes for the measured level to halve. The low end stands for fast loss, the high end for slow loss. By clearance is commonly meant the rate of elimination divided by the concentration.

Each structure is given as a SMILES string.

What all share (details): in vivo
Series [1] in a line: Volume of distribution in Beagle dog at 0.5 mL/kg, iv administered through catheter or 5 mL/kg, administered through gastric gavage measured after 24 hrs by LC-MS/MS analysis. In kind it is ADME, organism-based, Canis lupus familiaris.
The nature of series [2]: Half life in Beagle dog at 0.5 mL/kg, iv administered through catheter or 5 mL/kg, administered through gastric gavage measured after 24 hrs by LC-MS/MS analysis. In kind it is ADME, organism-based, Canis lupus familiaris.
Series [3] in a line: Clearance in Beagle dog at 0.5 mL/kg, iv administered through catheter measured after 24 hrs by LC-MS/MS analysis. It is filed as ADME, organism-based, Canis lupus familiaris.
Series [4] can be described thus: Half life in Sprague-Dawley rat at 1 mL/kg, iv administered through catheter measured after 24 hrs by LC-MS/MS analysis. In kind it is ADME, organism-based.

`Cc1sc(C(=O)N[C@@H]2[C@H](N)CCCC2(F)F)cc1-c1cnn2cc(Cl)cnc12` registered a Vd in series [1] of 2.3 L/kg. The half-life is 60 min in series [2] and 42 min in series [4]. In addition, in series [3], the clearance came to 1.62 L/h/kg.
